A short description of series [1]: Solubility in D2O by 1H NMR (Me2SO2 internal standard). The settings on record: for Solubility: 21 °C. The series is classed as physicochemical. The procedure:
• (a) Solubility in D2O. A suspension of the selected diiron compound (3–5 mg) in a D2O solution (ca. 1 mL) containing Me2SO2 (3.36 × 10^−3 M) as internal standard was vigorously stirred at 21 °C for 1.5 h. The resulting saturated solution was filtered over celite, transferred into an NMR tube and then analyzed by ^1H NMR spectroscopy (delay time = 3 s; number of scans = 20). The concentration (solubility) was calculated by the relative integral (related to Cp and/or NMe signals) with respect to Me2SO2 (δ = 3.14 ppm). • (b) Stability in DMSO-d6/D2O solution. The selected diiron compound (ca. 4 mg) was added of 1 mL of D2O (3a,c) or DMSO-d6/D2O (2:1 v/v) mixture (2a,c, 3b, 4a–c, 5a–c, 6a–c, 7), containing Me2SO2 (3.36 × 10^−3 M). The resulting mixture was stirred for 30 min and then filtered over celite; the filtrated solution was transferred into an NMR tube. The sample was analyzed by ^1H NMR (time = 0) and then heated at 37 °C for 72 h. After cooling to room temperature, the solution was separated from a small amount of solid by filtration over celite, and the new ^1H NMR spectrum was recorded (delay time = 3 s; number of scans = 20). In every case, no newly formed organometallic species was detected. The amount of starting material in solution (% with respect to the initial spectrum) was calculated by the relative integral (vs. Cp and/or NMe signals) with respect to Me2SO2 as internal standard.

In series [2] the test system is human ovarian carcinoma cisplatin-sensitive A2780. The series can be described thus: Cytotoxicity, WST-1 cell viability assay, A2780. The series is classed as cell-based. The settings on record: for IC50: 72 h exposure; for Selectivity index (S.I.): ratio between IC50 for Balb/3T3 and IC50 for A2780. The procedure: (§1) In vitro cytotoxicity investigations were carried out by using human ovarian carcinoma cisplatin-sensitive A2780 (ECACC93112519), human ovarian carcinoma cisplatin-resistant A2780cisR (ECACC 93112517) and mouse embryo fibroblasts Balb/3T3 clone A31 (ATCC CCL-163) cell lines. A2780 and A2780cisR were purchased from the European Collection of Authenticated Cell Cultures (ECACC), and Balb/3T3 clone A31 cell line from the American Type Culture Collection (ATCC).
(§2) A2780 and A2780cisR cells were routinely cultured in RPMI 1640 (Merck) containing 2 mM of L-glutamine (Merck), 1% of penicillin/streptomycin solution (Merck—10 000 U mL^−1: 10 mg mL^−1), 10% of fetal bovine serum (Merck—FBS) and antimycotic (InvivoGen, USA), and Balb/3T3 clone A31 in Dulbecco’s modified Eagle medium (Merck—DMEM) supplemented with 4 mM of L-glutamine, 1% of penicillin/streptomycin solution, 10% of calf serum (Merck) and antimycotic. […] The cultures were maintained at 37 °C and in a 5% CO2-enriched atmosphere.
(§3) A2780, A2780cisR and Balb/3T3 clone A31 cells were seeded in 96-well tissue culture polystyrene plates at a concentration of 3 × 10^3, 6 × 10^3 and 1 × 10^3 cells per well, respectively. After overnight incubation, the cells were treated with different concentrations (0–100 µM) of the selected compounds for 72 h at 37 °C in a 5% atmosphere of CO2. Stock solutions of compounds were prepared in DMSO and sequentially diluted in medium (final DMSO concentration of 0.5%). […] At the end of the incubation time, cell viability was assessed by means of WST-1 tetrazolium salt reagent (Roche). Briefly, cells were incubated for 4 h with the tetrazolium salt reagent diluted 1:10, at 37 °C and 5% CO2. Measurements of formazan dye absorbance, which directly correlates with the number of viable cells, were carried out with a micro-plate reader (Biorad) at 450 nm, using 655 nm as reference wavelength. The 50% inhibitory concentration (IC50) refers to compound concentration at which 50% of cell death is observed with respect to the control. For each tested compound, assay was performed on triplicate. The concentration effect curves were generated by nonlinear regression curves (GraphPad Prism Software, 2021) and the data reported as mean ± standard deviation.

The target of series [3] is T1, cytochrome c (Cyt c) (Equus caballus, UniProt P00004).
T1 construct: purchased
The series can be described thus: ESI-MS interaction with cytochrome c. The series is classed as binding. The following applies: 24 h at 37 °C, protein-to-metal ratio 1:2, pH 6.8. The procedure: • (a) Sample preparation. Cytochrome c (Cyt c) was commercially available and used as received; the TrxR dodecapeptide (TrxR-pept) was synthesized as reported in the literature. The stock solutions of the selected iron-based complexes were prepared in DMSO up to a final concentration of 10^−2 M. The stock solution of TrxR-pept was prepared in LC-MS grade water by dissolving the required amount of lyophilized peptide to reach a final concentration of 10^−3 M. The stock solution of Cyt c 10^−3 M was prepared by dissolving the required amount of protein in 2 mM ammonium acetate solution at pH 6.8. In the interaction tests with TrxR-pept, opportune aliquots of each complex and TrxR-pept stock solutions were mixed and diluted with LC-MS grade water to 10^−4 M final concentration and a TrxR-pept/complex ratio of 1:1. For each iron-based complex/Cyt c pair, appropriate aliquots of the respective stock solutions were mixed and subsequently diluted with 2 mM ammonium acetate solution (pH 6.8) to a final protein concentration of 10^−4 M and a protein-to-metal molar ratio of 1:2. All the sample mixtures were incubated for 24 h at 37 °C. Subsequently, opportune dilutions were performed as detailed: • – the TrxR-pept containing solutions were further diluted with LC-MS grade water to a final TrxR-pept concentration of 10^−5 M and added with 0.1% v/v of formic acid just before infusion in the mass spectrometer; • – the protein-containing solutions were diluted with 2 mM ammonium acetate solution (pH 6.8) to a final protein concentration of 10^−6 M and added with 0.1% v/v of formic acid just before infusion. • (b) ESI-MS instrumental parameters. The ESI mass spectra were acquired using a TripleTOF® 5600^+ high-resolution mass spectrometer (Sciex, Framingham, MA, USA), with a DuoSpray® interface operating with an ESI probe. Respective ESI mass spectra were acquired through direct infusion at 7 μL min^−1 flow rate. The ESI source parameters were optimized for each biomolecule and were as follows: for TrxR dodecapeptide positive polarity, ionspray voltage floating 5500 V, temperature 0, ion source gas 1 (GS1) 35 L min^−1; ion source gas 2 (GS2) 0; curtain gas (CUR) 20 L min^−1, declustering potential (DP) 300 V, collision energy (CE) 10 V, range 1070–1600 m/z; for Cyt c positive polarity, ionspray voltage floating 5500 V, temperature 0, ion source gas 1 (GS1) 35 L min^−1; ion source gas 2 (GS2) 0; curtain gas (CUR) 20 L min^−1, declustering potential (DP) 180 V, collision energy (CE) 10 V, range 500–1800 m/z. For acquisition, Analyst TF software 1.7.1 (Sciex, Framingham, MA, USA) was used and deconvoluted spectra were obtained by using the Bio Tool Kit micro-application v.2.2 embedded in PeakView^TM software v.2.2 (Sciex, Framingham, MA, USA).

The test system of series [4] is mouse embryo fibroblasts Balb/3T3 clone A31. The series can be described thus: Cytotoxicity, WST-1 cell viability assay, Balb/3T3 clone A31. The settings on record: 72 h exposure. It is filed as cell-based. The procedure:
as §1, §2, §3

“And” between values parts separate entries of the source, which are not always exact repeats. Equal values may be shown once. Bounds are passed on as bounds.

T1 sequence (P00004 whole entry): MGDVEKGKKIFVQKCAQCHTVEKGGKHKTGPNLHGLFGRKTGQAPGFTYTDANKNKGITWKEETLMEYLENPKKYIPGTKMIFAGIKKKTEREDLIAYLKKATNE

With “[Fe2Cp2(CO)(μ-CO){μ-η^1:η^3-C^3(Me)C^2(Me)C^1N(CH2Ph)2}]CF3SO3 [Compound 2c]”, the “Solubility in D2O (in words)” value in series [1] is recorded as “almost insoluble in D2O”. In series [2], the IC50 is 1.91 ± 0.15 µM and the “Selectivity index (S.I.)” value is given as 9. For the same substance, the “Interaction with Cyt c (ESI-MS)” value in series [3] is given as “substantial chemical inertness”. This substance also displayed a half-inhibitory concentration (IC50) in series [4] of 18 ± 3 µM.
The corresponding values for “[Fe2Cp2(CO)(μ-CO){μ-η^1:η^3-C^3(Me)C^2(Me)C^1NMe(2-naphthyl)}]CF3SO3 [Compound 7]” are “almost insoluble in D2O”, 2.2 ± 0.2 µM, 22, “substantial chemical inertness” and 48 ± 3 µM.
As for “[Fe2Cp2(CO)(μ-CO){μ-η^1:η^3-C^3(Me)C^2(Me)C^1NMe(4-C6H4OMe)}]CF3SO3 [Compound 6c]”, the Solubility in series [1] was 1.06 × 10^−3 mol·L^−1 and 0.69 g·L^−1. In series [2], the IC50 was 3.8 ± 0.4 µM and the “Selectivity index (S.I.)” value is recorded as greater than 26. Further, the “Interaction with Cyt c (ESI-MS)” value in series [3] is “substantial chemical inertness”. The same substance showed an IC50 in series [4] greater than 100 µM.
On to “[Fe2Cp2(CO)(μ-CO){μ-η^1:η^3-C^3(Me)C^2(Me)C^1NMe(CH2Ph)}]CF3SO3 [Compound 5b]”, for which the Solubility in series [1] is 1.52 × 10^−3 mol·L^−1 and 0.96 g·L^−1. In series [2], the midpoint of inhibition, the IC50, lay at 5.1 ± 0.3 µM and the “Selectivity index (S.I.)” value is greater than 19. The “Interaction with Cyt c (ESI-MS)” value in series [3] is recorded as “substantial chemical inertness”. Further, in series [4], the IC50 is greater than 100 µM.
Regarding “[Fe2Cp2(CO)(μ-CO){μ-η^1:η^3-C^3(Me)C^2(Me)C^1NMe(Cy)}]CF3SO3 [Compound 4c]”, the Solubility in series [1] is 2.63 × 10^−3 mol·L^−1 and 1.64 g·L^−1. Also, in series [2], the half-maximal inhibitory concentration (IC50) was determined as 1.8 ± 0.2 µM and the “Selectivity index (S.I.)” value is recorded as 52. Also, in series [3], the “Interaction with Cyt c (ESI-MS)” value is “substantial chemical inertness”. This substance displayed an IC50 in series [4] of 94 ± 16 µM.
In the case of “[Fe2Cp2(CO)(μ-CO){μ-η^1:η^3-C^3(Me)C^2HC^1NMe(Cy)}]CF3SO3 [Compound 4a]”, the Solubility in series [1] was 3.49 × 10^−3 mol·L^−1 and 2.13 g·L^−1. Further, the IC50 was 3.3 ± 0.4 µM in series [2] and greater than 100 µM in series [4]. Besides, in series [2], the “Selectivity index (S.I.)” value is greater than 30. For the same substance, in series [3], the “Interaction with Cyt c (ESI-MS)” value is recorded as “substantial chemical inertness”.
For “[Fe2Cp2(CO)(μ-CO){μ-η^1:η^3-C^3(Ph)C^2HC^1NMe(4-C6H4OMe)}]CF3SO3 [Compound 6b]”, in series [2], the IC50 was determined as 3.8 ± 0.4 µM and the “Selectivity index (S.I.)” value is recorded as 10. In addition, the “Interaction with Cyt c (ESI-MS)” value in series [3] is recorded as “substantial chemical inertness”. In addition, in series [4], the IC50 is 39 ± 3 µM.
As for “[Fe2Cp2(CO)(μ-CO){μ-η^1:η^3-C^3(Ph)C^2HC^1NMe(CH2CH = CH2)}]CF3SO3 [Compound 3b]”, the Solubility in series [1] is 2.34 × 10^−3 mol·L^−1 and 1.48 g·L^−1. Moreover, the 50% inhibitory concentration (IC50) in series [2] was 6 ± 0.8 µM; in series [4], greater than 100 µM. Moreover, the “Selectivity index (S.I.)” value in series [2] is recorded as greater than 16. Further, the “Interaction with Cyt c (ESI-MS)” value in series [3] is given as “substantial chemical inertness”.
